Assay results published in patent publication US9850247B2 (Almac Discovery Limited, priority 2013, dated 2017).

Experiments:
Wee-1 kinase = target: T1, Wee-1 kinase (Homo sapiens, UniProt P30291); test: Measurement of Wee-1 kinase activity (ADP-Glo luminescent kit); assay type: biochemical
T1 construct: purchased Invitrogen PV3817
Summary of the method: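 ADP-Glo luminescence reads ADP made over 1 h at RT, after an aliquot of 30 μM ATP and 2.0 μg/mL poly(Lys,Tyr 4:1) substrate. Before that, the kinase sat 30 min with inhibitor in Tris-HCl/MgCl2 buffer with BSA and DTT. IC50 came from regression of percent inhibition.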

[1] = target: T2, human ether a go-go related gene (hERG) K′ channel (Homo sapiens, UniProt Q12809); test: hERG activity, IonWorks patch clamp electrophysiology (Method 6); assay type: cell-based
T2 construct: Essen BioScience
T2 sequence (Q12809 whole entry): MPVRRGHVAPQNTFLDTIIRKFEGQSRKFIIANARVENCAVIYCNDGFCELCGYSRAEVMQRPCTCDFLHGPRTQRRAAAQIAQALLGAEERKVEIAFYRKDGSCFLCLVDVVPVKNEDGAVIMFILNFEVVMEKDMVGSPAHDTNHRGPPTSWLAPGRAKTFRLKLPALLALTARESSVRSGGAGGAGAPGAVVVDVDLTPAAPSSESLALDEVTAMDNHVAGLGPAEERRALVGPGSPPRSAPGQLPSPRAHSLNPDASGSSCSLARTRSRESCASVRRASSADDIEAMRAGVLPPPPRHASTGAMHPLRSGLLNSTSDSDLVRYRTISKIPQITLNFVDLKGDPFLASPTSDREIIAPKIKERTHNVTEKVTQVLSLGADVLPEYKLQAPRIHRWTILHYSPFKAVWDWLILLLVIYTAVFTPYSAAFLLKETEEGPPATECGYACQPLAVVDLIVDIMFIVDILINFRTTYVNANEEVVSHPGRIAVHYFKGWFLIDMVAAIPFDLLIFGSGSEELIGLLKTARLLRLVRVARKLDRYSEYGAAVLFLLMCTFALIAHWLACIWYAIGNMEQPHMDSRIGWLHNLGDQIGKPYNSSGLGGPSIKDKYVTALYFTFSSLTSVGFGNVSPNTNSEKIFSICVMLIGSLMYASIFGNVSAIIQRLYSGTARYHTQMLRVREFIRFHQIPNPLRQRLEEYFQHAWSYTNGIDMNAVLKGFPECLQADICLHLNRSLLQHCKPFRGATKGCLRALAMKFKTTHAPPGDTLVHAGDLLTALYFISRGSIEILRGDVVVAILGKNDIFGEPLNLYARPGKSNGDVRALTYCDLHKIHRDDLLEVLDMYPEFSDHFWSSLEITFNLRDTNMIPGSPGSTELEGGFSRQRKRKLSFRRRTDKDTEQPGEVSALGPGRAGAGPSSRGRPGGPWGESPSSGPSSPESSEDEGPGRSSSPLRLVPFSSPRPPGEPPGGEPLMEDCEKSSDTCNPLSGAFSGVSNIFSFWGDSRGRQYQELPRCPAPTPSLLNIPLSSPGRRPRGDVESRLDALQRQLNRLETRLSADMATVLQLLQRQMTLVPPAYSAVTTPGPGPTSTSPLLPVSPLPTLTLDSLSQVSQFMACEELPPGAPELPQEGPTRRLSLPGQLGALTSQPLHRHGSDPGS
Description: Method 6: Determination of hERG Activity
Compounds were tested for inhibition of the human ether a go-go related gene (hERG) K′ channel using IonWorks patch clamp electrophysiology at Essen BioScience. 8-Point concentration-response curves of the effect of compound on hERG current as a percentage of pre-compound signal were generated using 3-fold serial dilutions from 11 μM and results are reported as IC50 in μM.

[2] = CLint estimates using human liver microsomes (Method 4); assay type: in vitro ADME; details: pH 7.4, 1 μM compound, read-out: Mics - CLint (HLM CLint)
Summary of the method: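 Depletion measured by LC/MS/MS in MRM mode over 2–50 min after starting reactions with 1 mM NADPH. Incubations used 0.5 mg/mL human liver microsomal protein, 1 μM compound, 0.1% DMSO, pH 7.4 phosphate buffer, 37 °C. ln peak area plotted against time; the gradient gave t½ and intrinsic clearance.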

T1 sequence (P30291 whole entry): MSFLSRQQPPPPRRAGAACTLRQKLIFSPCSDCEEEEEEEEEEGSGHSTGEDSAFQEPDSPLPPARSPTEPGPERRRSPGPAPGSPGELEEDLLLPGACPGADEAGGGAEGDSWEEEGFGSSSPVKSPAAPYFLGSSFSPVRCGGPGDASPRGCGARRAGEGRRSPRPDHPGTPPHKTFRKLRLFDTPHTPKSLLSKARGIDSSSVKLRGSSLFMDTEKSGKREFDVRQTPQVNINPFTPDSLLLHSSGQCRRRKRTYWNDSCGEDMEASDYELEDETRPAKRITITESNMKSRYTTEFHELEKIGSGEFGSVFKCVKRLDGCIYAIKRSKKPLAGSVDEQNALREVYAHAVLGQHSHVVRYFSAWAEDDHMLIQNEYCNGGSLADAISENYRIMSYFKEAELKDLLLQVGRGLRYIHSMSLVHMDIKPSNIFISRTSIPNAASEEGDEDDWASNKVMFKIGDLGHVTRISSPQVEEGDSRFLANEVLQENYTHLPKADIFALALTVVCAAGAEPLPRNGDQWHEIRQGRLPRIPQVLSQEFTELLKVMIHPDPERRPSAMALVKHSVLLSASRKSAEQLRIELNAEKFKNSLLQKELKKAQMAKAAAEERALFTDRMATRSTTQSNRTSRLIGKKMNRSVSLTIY

Structure (SMILES) | IC50 (Wee-1 kinase) | microsomal CLint at 1 μM [2] | IC50 [1] | hERG inhibition compared with prior art analogues ([1]; versus analogues from WO2013126656, WO2013013031 and WO2013059485)
CN1CN(c2c(Cl)cccc2Cl)C(=O)c2cnc(Nc3ccc4c(c3)CNCC4)nc21 [Example 14, 3-(2,6-Dichlorophenyl)-1-methyl-7-((1,2,3,4-tetrahydroisoquinolin-7-yl)amino)-2,3-dihydropyrimido[4,5-d]pyrimidin-4(1H)-one] | ≤ 10 nM | ≤ 15 µL/min/mg |  | 
CNCc1cc(Nc2ncc3c(n2)N(C)CN(c2c(Cl)cccc2Cl)C3=O)ccc1N1CCOCC1 [Example 5, 3-(2,6-Dichlorophenyl)-1-methyl-7-((3-((methylamino)methyl)-4-morpholinophenyl)amino)-2,3-dihydropyrimido[4,5-d]pyrimidin-4(1H)-one] | ≤ 10 nM | ≤ 15 µL/min/mg |  | lower hERG inhibition
C[C@@H]1CN(c2ccc(Nc3ncc4c(n3)N(C)CN(c3c(Cl)cccc3Cl)C4=O)cc2)CCN1 [Example 16, (R)-3-(2,6-Dichlorophenyl)-1-methyl-7-((4-(3-methylpiperazin-1-yl)phenyl)amino)-2,3-dihydropyrimido[4,5-d]pyrimidin-4(1H)-one] | ≤ 10 nM | ≤ 15 µL/min/mg | > 10000 nM | 
CN1CCc2ccc(Nc3ncc4c(n3)N(C)CN(c3c(Cl)cccc3Cl)C4=O)cc2C1 [Example 22, 3-(2,6-Dichlorophenyl)-1-methyl-7-((2-methyl-1,2,3,4-tetrahydroisoquinolin-7-yl)amino)-2,3-dihydropyrimido[4,5-d]pyrimidin-4(1H)-one] | ≤ 10 nM | 15 to 50 µL/min/mg |  | 
CN1CN(c2c(Cl)cccc2Cl)C(=O)c2cnc(Nc3ccc(N4CCNCC4)c(C#N)c3)nc21 [Example 11, 3-(2,6-Dichlorophenyl)-7-((3-cyano-4-(piperazin-1-yl)phenyl)amino)-1-methyl-2,3-dihydropyrimido[4,5-d]pyrimidin-4(1H)-one] | ≤ 10 nM | ≤ 15 µL/min/mg |  | 
COc1cc(Nc2ncc3c(n2)N(C)CN(c2c(Cl)cccc2Cl)C3=O)ccc1N1CCNCC1 [Example 3, 3-(2,6-Dichlorophenyl)-7-((3-methoxy-4-(piperazin-1-yl)phenyl)amino)-1-methyl-2,3-dihydropyrimido[4,5-d]pyrimidin-4(1H)-one] | ≤ 10 nM | 15 to 50 µL/min/mg |  | 
C[C@@H]1CN(c2ccc(Nc3ncc4c(n3)N(C)CN(c3c(F)cccc3Cl)C4=O)cc2)CCN1 [Example 53, (R)-3-(2-chloro-6-fluorophenyl)-1-methyl-7-((4-(3-methylpiperazin-1-yl)phenyl)amino)-2,3-dihydropyrimido[4,5-d]pyrimidin-4(1H)-one] | 10 to 100 nM | ≤ 15 µL/min/mg |  | 
CN1CN(c2c(Cl)cccc2Cl)C(=O)c2cnc(Nc3ccc(N4CC5CCC(C4)N5C)c(CO)c3)nc21 [Example 86, 3-(2,6-dichlorophenyl)-7-((3-(hydroxymethyl)-4-(8-methyl-3,8-diazabicyclo[3.2.1]octan-3-yl)phenyl)amino)-1-methyl-2,3-dihydropyrimido[4,5-d]pyrimidin-4(1H)-one] | ≤ 10 nM | ≤ 15 µL/min/mg |  | 

Continued, in another order:

IC50 (Wee-1 kinase) | microsomal CLint at 1 μM [2] | Structure (SMILES) | IC50 [1] | hERG inhibition compared with prior art analogues ([1]; versus analogues from WO2013126656, WO2013013031 and WO2013059485)
≤ 10 nM | 15 to 50 µL/min/mg | Cc1cc(Nc2ncc3c(n2)N(C)CN(c2c(Cl)cccc2Cl)C3=O)ccc1N1CCNCC1 [Example 6, 3-(2,6-Dichlorophenyl)-1-methyl-7-((3-methyl-4-(piperazin-1-yl)phenyl)amino)-2,3-dihydropyrimido[4,5-d]pyrimidin-4(1H)-one] | > 10000 nM | 
≤ 10 nM | ≤ 15 µL/min/mg | Cc1cc(Nc2ncc3c(n2)N(C)CN(c2c(Cl)cccc2Cl)C3=O)ccc1C1CCNCC1 [Example 18, 3-(2,6-Dichlorophenyl)-1-methyl-7-((3-methyl-4-(piperidin-4-yl)phenyl)amino)-2,3-dihydropyrimido[4,5-d]pyrimidin-4(1H)-one] |  | 
10 to 100 nM | 15 to 50 µL/min/mg | CC(C)N1CCN(c2ccc(Nc3ncc4c(n3)N(C)CN(c3c(Cl)cccc3Cl)C4=O)cc2CO)CC1 [Example 21, 3-(2,6-Dichlorophenyl)-7-((3-(hydroxymethyl)-4-(4-isopropylpiperazin-1-yl)phenyl)amino)-1-methyl-2,3-dihydropyrimido[4,5-d]pyrimidin-4(1H)-one] |  | 
≤ 10 nM | ≤ 15 µL/min/mg | [2H]C1([2H])N(C)c2nc(Nc3ccc(N4CCNCC4)cc3)ncc2C(=O)N1c1c(Cl)cccc1Cl [Example 15, 3-(2,6-Dichlorophenyl)-2,2-dideutero-1-methyl-7-((4-(piperazin-1-yl)phenyl)amino)-2,3-dihydropyrimido[4,5-d]pyrimidin-4(1H)-one] |  | 
≤ 10 nM | 15 to 50 µL/min/mg | CN1CN(c2c(Cl)cccc2Cl)C(=O)c2cnc(Nc3ccc(N4CCNCC4)cc3)nc21 [Example 1, 3-(2,6-Dichlorophenyl)-1-methyl-7-((4-(piperazin-1-yl)phenyl)amino)-2,3-dihydropyrimido[4,5-d]pyrimidin-4(1H)-one] | > 10000 nM | 
≤ 10 nM | ≤ 15 µL/min/mg | CNCCOc1ccc(Nc2ncc3c(n2)N(C)CN(c2c(Cl)cccc2Cl)C3=O)cc1 [Example 2, 3-(2,6-Dichlorophenyl)-1-methyl-7-((4-(2-(methylamino)ethoxy)phenyl)amino)-2,3-dihydropyrimido[4,5-d]pyrimidin-4(1H)-one] |  | 
